Experimental data published in ChEMBL document CHEMBL5380809, “Discovery of Novel N-Hydroxy-1,2,4-oxadiazole-5-formamides as ASM Direct Inhibitors for the Treatment of Atherosclerosis” (J Med Chem, 2023).
Each block holds one compound with its values, some of them ahead of it. Activity calls are given as the source filed them. The calls are words filed in the database; no cut-off is given here.

Assays:
[1] = molecular target: T1, Sphingomyelin phosphodiesterase (Homo sapiens) (UniProt P17405); experiment: Inhibition of recombinant human aSMase (62 to 628 residues) using HMU-PC as substrate at 50 uM incubated for 2 hrs by fluorescence based assay
T1 sequence (whole entry): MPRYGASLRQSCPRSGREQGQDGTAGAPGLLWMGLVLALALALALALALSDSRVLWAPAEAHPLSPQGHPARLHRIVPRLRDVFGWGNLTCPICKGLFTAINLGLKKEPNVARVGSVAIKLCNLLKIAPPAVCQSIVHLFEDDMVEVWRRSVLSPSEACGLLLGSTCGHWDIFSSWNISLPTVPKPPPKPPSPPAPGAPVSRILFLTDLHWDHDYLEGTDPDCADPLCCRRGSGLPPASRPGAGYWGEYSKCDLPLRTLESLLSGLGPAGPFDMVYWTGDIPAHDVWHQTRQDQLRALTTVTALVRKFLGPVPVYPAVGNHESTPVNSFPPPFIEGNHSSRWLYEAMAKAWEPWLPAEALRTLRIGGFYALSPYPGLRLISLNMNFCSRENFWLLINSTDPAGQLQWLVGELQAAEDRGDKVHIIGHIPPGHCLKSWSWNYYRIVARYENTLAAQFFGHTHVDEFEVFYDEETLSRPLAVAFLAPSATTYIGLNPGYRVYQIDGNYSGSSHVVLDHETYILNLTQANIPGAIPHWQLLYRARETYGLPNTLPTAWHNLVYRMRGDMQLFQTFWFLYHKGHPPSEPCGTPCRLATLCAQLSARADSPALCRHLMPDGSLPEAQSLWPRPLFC

Mus musculus [2] = experiment: Antiatherosclerotic activity in high-fat diet fed ApoE-/- mouse assessed as reduction in plasma total cholesterol level at 20 mg/kg measured after 8 weeks; type: functional, organism-based
Mus musculus [3] = experiment: Antiatherosclerotic activity in high-fat diet fed ApoE-/- mouse assessed as reduction in aortic arch lipid accumulation at 20 mg/kg measured after 8 weeks; type: functional, organism-based
Mus musculus [4] = experiment: Antiatherosclerotic activity in high-fat diet fed ApoE-/- mouse assessed as reduction in plasma Ox-LDL-C level at 20 mg/kg measured after 8 weeks; type: functional, organism-based
Mus musculus [5] = experiment: Antiatherosclerotic activity in high-fat diet fed ApoE-/- mouse assessed as reduction in plasma total triacylglycerol level at 20 mg/kg measured after 8 weeks; type: functional, organism-based
Mus musculus [6] = experiment: Antiatherosclerotic activity in high-fat diet fed ApoE-/- mouse assessed as reduction in plasma LDL-C level at 20 mg/kg measured after 8 weeks; type: functional, organism-based
[7] = molecular target: T2, Sphingomyelin phosphodiesterase (Homo sapiens, UniProt P17405); experiment: Inhibition of recombinant human aSMase (62 to 628 residues) using HMU-PC as substrate incubated for 2 hrs by fluorescence based assay
T2 sequence (P17405 whole entry): T1 sequence (whole entry)

[8] = molecular target: T1, Sphingomyelin phosphodiesterase (Homo sapiens); experiment: Inhibition of recombinant human aSMase (62 to 628 residues) using HMU-PC as substrate at 25 uM incubated for 2 hrs by fluorescence based assay relative to control
[9] = molecular target: T1, Sphingomyelin phosphodiesterase (Homo sapiens); experiment: Inhibition of recombinant human aSMase (62 to 628 residues) using HMU-PC as substrate at 50 uM incubated for 2 hrs by fluorescence based assay relative to control
[10] = Cytotoxicity against HUVEC cells assessed as cell growth inhibition incubated for 24 hrs by MTT assay; type: toxicity, cell-based; details: human
[11] = Cytotoxicity against HUVEC cells assessed as cell growth inhibition incubated for 48 hrs by MTT assay; type: toxicity, cell-based; details: human
HUVEC = experiment: Cytotoxicity against HUVEC cells assessed as cell growth inhibition at 0.5 to 20 uM incubated for 24 to 48 hrs by MTT assay; type: toxicity, cell-based; details: human, dose lower 0.5 µM, time lower 24 hrs, dose upper 20 µM, time upper 48 hrs
[12] = Inhibition of rat brain aSMase using HMU-PC as substrate incubated for 3 hrs by fluorescence based assay; type: tissue-based

Compound: O=C(CCCOc1ccc(-c2ccc(Cl)cc2)cc1)NO
inhibition [1]: inactive

Compound: CCC(C)(C)C(=O)O[C@H]1C[C@@H](C)C=C2C=C[C@H](C)[C@H](CC[C@@H]3C[C@@H](O)CC(=O)O3)[C@H]21
Activity (Mus musculus [2]): Active | Activity (Mus musculus [3]): Active | Activity (Mus musculus [4]): inactive | Activity (Mus musculus [5]): Active | Activity (Mus musculus [6]): Active

Compound: CCCCOc1ccc(-c2cc(C(=O)NO)no2)cc1
IC50 [7]: 1 µM

Compound: O=C(NO)c1nc(-c2ccc(COc3ccc(C(F)(F)F)cc3)cc2)no1
IC50 at 24 h [10]: 79.1 µM | IC50 [7]: 8.1 µM | IC50 at 48 h [11]: 84.3 µM

Compound: O=C(NO)c1nc(COc2ccc(-c3ccccc3)cc2)no1
IC50 [7]: 0.83 µM

Compound: O=C(Cc1noc(-c2ccc(Br)cc2)n1)NO
IC50 [7]: > 50 µM | inhibition [9]: < 50%

Compound: O=C(NO)c1cc(-c2ccc(-c3ccc(Cl)cc3)cc2)on1
IC50 [7]: > 50 µM | inhibition [9]: < 50%

Compound: O=C(Cc1noc(-c2ccc(-c3ccc(Cl)cc3)cc2)n1)NO
IC50 [7]: > 50 µM | inhibition [9]: < 50%

Compound: O=C(Cc1noc(COc2ccc(-c3ccc(Cl)cc3)cc2)n1)NO
IC50 [7]: 18.7 µM

Compound: O=C(NO)c1nnc(-c2ccc(-c3ccc(Cl)cc3)cc2)o1
IC50 [7]: 0.51 µM

Compound: O=C(NO)c1nnc(-c2ccc(OCc3ccccc3)cc2)o1
inhibition [8]: 3%

Compound: O=C(NO)c1nc(COc2ccc(-c3ccc(Cl)cc3)cc2)no1
IC50 [7]: 0.47 µM

Compound: O=C(NO)c1nc(-c2ccc(CNc3ccc(Cl)cc3)cc2)no1
inhibition [1]: inactive

Compound: COc1c(O)cc2oc3cc(O)c(CC=C(C)C)c(O)c3c(=O)c2c1CC=C(C)C [MANGOSTIN]
IC50 [12]: 14.1 µM

Compound: O=C(Cc1nc(-c2ccc(COc3ccc(Br)cc3)cc2)no1)NO
inhibition [1]: inactive

Compound: COc1cc(-c2nnc(C(=O)NO)o2)ccc1OCc1ccccc1
inhibition [8]: 60%

Compound: O=C(NO)c1nc(-c2ccc(COc3ccccc3)cc2)no1
IC50 [7]: 3.3 µM

Compound: O=C(NO)c1nc(-c2ccc(CNc3ccc(C(F)(F)F)cc3)cc2)no1
inhibition [1]: inactive

Compound: O=C(NO)c1nc(-c2ccc(COc3ccc(Cl)cc3)cc2)no1
IC50 [7]: 4.2 µM

Second part, led by results:

inhibition [1]: inactive | inhibition [8]: 13%
Compound: CCCCOc1ccc(-c2nnc(C(=O)NO)o2)cc1

inhibition [1]: inactive
Compound: O=C(CCCOc1ccc(-c2cccnc2)cc1)NO

IC50 [7]: > 50 µM | inhibition [9]: < 50%
Compound: O=C(Cc1noc(COc2ccc(-c3ccccc3)cc2)n1)NO

IC50 [7]: 6.73 µM
Compound: CC(C)COc1ccc(-c2cc(C(=O)NO)no2)cc1

inhibition [8]: 55%
Compound: COc1cc(-c2nnc(C(=O)NO)o2)ccc1OCC(C)C

inhibition [8]: 57%
Compound: CCCCOc1ccc(-c2nnc(C(=O)NO)o2)cc1OC

IC50 [7]: 4.91 µM
Compound: O=C(NO)c1noc(COc2ccc(-c3ccccc3)cc2)n1

IC50 [7]: 0.81 µM
Compound: CC(C)COc1ccc(-c2nnc(C(=O)NO)o2)cc1
Activity (HUVEC): Non-Toxic

inhibition [1]: inactive
Compound: O=C(NO)c1nc(-c2ccc(COc3ccccc3Cl)cc2)no1

inhibition [1]: inactive
Compound: O=C(Cc1nc(-c2ccc(COc3ccccc3)cc2)no1)NO

IC50 [7]: 8.4 µM
Compound: O=C(NO)c1nc(-c2ccc(COc3cccc(Cl)c3)cc2)no1

IC50 [7]: 37.3 µM
Compound: O=C(NO)c1noc(-c2ccc(Br)cc2)n1

IC50 [7]: 7.9 µM
Compound: O=C(NO)c1cc(-c2ccc(OCc3ccccc3)cc2)on1
